Series [1] is described as follows: Metabolic stability in rat liver microsomes assessed as intrinsic clearance. The format is ADME, Microsome. As to conditions: read-out: CLH. For orientation: Liver microsomes are a subcellular fraction often used to study metabolism.
Series [2] deals with CYP3A4 (Homo sapiens, UniProt P08684). Nature of the series: Inhibition of CYP3A4 (unknown origin) at 10 uM. The format is ADME.
The nature of series [3]: Metabolic stability in mouse liver microsomes assessed as half life. The format is ADME, Microsome.
A short description of series [4]: Volume of distribution in ICR mouse at 2 mg/kg, iv. The format is ADME, organism-based. The settings on record: in vivo.
The target in series [5] is CYP2D6 (Homo sapiens, UniProt P10635). Nature of the series: Inhibition of CYP2D6 (unknown origin) at 10 uM. The series is classed as ADME.
Series [6] is described as follows: Clearance in ICR mouse at 2 mg/kg, iv. The series is classed as ADME, organism-based. As to conditions: in vivo.
Series [7] has as its target Voltage-gated inwardly rectifying potassium channel KCNH2 (Homo sapiens, UniProt Q12809). Nature of the series: Inhibition of hERG at 10 uM. The format is toxicity. A general note: Block of hERG is tested as a sign of cardiac risk.
Series [8] has as its target CYP2C19 (Homo sapiens, UniProt P33261). Nature of the series: Inhibition of CYP2C19 (unknown origin) at 10 uM. The series is classed as ADME.
Series [9] is described as follows: AUC in ICR mouse at 10 mg/kg, po. The series is classed as ADME, organism-based. Set-up: dose 10 mg/kg, route po. The settings on record: in vivo.
Series [10] can be described thus: Metabolic stability in mouse liver microsomes assessed as intrinsic clearance. The settings on record: read-out: CLH. The format is ADME, Microsome.
Series [11] addresses CYP2C9 (Homo sapiens, UniProt P11712). Briefly: Inhibition of CYP2C9 (unknown origin) at 10 uM. The format is ADME.
Series [12] is described as follows: Half life in ICR mouse at 2 mg/kg, iv. The format is ADME, organism-based. As to conditions: in vivo.
Series [13] can be described thus: Metabolic stability in rat liver microsomes assessed as half life. The format is ADME, Microsome.
Series [14] addresses T1, CYP1A2 (Homo sapiens, UniProt P05177).
T1 sequence (P05177 whole entry): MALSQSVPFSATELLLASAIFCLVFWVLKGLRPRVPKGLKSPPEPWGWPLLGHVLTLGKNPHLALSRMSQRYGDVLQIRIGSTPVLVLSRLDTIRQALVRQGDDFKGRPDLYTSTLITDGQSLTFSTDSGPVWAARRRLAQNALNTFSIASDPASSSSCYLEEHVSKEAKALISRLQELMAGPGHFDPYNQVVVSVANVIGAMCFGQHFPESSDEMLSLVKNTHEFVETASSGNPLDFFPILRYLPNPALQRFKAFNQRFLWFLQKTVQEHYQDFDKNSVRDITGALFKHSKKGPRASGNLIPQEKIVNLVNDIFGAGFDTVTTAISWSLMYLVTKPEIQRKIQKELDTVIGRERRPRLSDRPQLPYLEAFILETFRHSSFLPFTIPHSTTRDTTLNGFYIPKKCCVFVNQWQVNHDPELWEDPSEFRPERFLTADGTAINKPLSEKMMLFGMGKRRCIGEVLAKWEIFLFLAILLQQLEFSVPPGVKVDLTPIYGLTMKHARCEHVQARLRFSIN
Briefly: Inhibition of CYP1A2 (unknown origin) at 10 uM. The format is ADME.

Series [15] concerns HT-29. Nature of the series: Anti-necroptotic activity in human HT-29 cells assessed as inhibition of T/S/Z induced necroptosis by CellTiter-Glo Luminescent Cell Viability assay. The series is classed as functional, cell-based.
In series [16] the test system is Jurkat. Briefly: Anti-necroptotic activity in FADD null human Jurkat cells assessed as inhibition of T/S/Z induced necroptosis by CellTiter-Glo Luminescent Cell Viability assay. The series is classed as functional, cell-based. (In general: In ATP-based viability assays light output follows the ATP content of the culture.)
Series [17] has as its target T2, Receptor-interacting serine/threonine-protein kinase 3 (Homo sapiens, UniProt Q9Y572). Briefly: Inhibition of RIPK3 (unknown origin) expressed in NIH3T3 cells assessed as inhibition of dimerizer-induced pMLKL level by Western blot analysis. The series is classed as cell-based.
Series [18] concerns the target T3, Receptor-interacting serine/threonine-protein kinase 1 (Homo sapiens, UniProt Q13546).
T3 sequence (Q13546 whole entry): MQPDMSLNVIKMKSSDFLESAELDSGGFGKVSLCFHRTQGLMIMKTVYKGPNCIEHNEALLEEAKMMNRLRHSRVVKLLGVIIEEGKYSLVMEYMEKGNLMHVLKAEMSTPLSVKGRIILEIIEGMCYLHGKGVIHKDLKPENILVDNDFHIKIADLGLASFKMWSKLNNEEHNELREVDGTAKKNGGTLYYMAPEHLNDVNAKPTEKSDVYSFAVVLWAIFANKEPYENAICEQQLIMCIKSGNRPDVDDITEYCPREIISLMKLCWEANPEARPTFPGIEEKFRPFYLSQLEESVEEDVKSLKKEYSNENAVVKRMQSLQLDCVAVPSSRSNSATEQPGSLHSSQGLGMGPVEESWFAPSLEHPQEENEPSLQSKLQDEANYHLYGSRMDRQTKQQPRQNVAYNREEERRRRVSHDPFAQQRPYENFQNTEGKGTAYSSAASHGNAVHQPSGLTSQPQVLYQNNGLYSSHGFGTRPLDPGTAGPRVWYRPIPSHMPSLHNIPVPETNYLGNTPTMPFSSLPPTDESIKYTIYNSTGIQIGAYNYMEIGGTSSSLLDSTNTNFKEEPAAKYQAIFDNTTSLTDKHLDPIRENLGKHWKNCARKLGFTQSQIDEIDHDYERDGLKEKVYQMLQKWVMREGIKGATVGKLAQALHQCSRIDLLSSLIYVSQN
Briefly: Binding affinity to RIPK1 (unknown origin) by ADP-GlO assay.

Series [19] in a line: Oral bioavailability in 2 hrs fasted CD-1 mouse at 3 mg/kg. The format is ADME, organism-based. The settings on record: in vivo.
Series [20] in a line: Volume of distribution at steady state in 2 hrs fasted CD-1 mouse at 3 mg/kg, po. The format is ADME, organism-based. The settings on record: in vivo.
The nature of series [21]: AUC (last) in 2 hrs fasted CD-1 mouse at 3 mg/kg, po. As to conditions: in vivo. Set-up: dose 3 mg/kg, route po. The format is ADME, organism-based.
Series [22] in a line: Clearance in 2 hrs fasted CD-1 mouse at 3 mg/kg, po. The settings on record: in vivo. The format is ADME, organism-based.
The target in series [23] is Receptor-interacting serine/threonine-protein kinase 2 (Homo sapiens) (UniProt O43353). Briefly: Inhibition of RIPK2 (unknown origin) at 1 uM relative to control.
Series [24] has as its system Jurkat. Nature of the series: Anti-necroptotic activity in FADD-deficient human Jurkat cells assessed as reduction in cell growth preincubated for 30 mins followed by TNFalpha stimulation incubated overnight by CellTiter-Glo assay. The series is classed as functional, cell-based.
The nature of series [25]: Anti-necroptotic activity in mouse dermal fibroblast assessed as inhibition in T/S/Q induced necroptosis measured by flow cytometry. The series is classed as functional, cell-based.
The target of series [26] is T2, Receptor-interacting serine/threonine-protein kinase 3. Briefly: Inhibition of human RIPK3 using MBP as substrate by [gamma33-ATP] based radiometric assay.
Series [27] in a line: Anti-necroptotic activity in mouse BMDM cells assessed as inhibition of TNF/zVAD.fmk induced necroptosis pretreated for 30 mins measured after 19 to 21 hrs by CellTiter-Glo Luminescent Cell Viability assay.
A short description of series [28]: Clearance in C57BL/6 mouse plasma at 5 mg/kg, iv. The format is ADME, organism-based.
Series [29] is described as follows: Half life in C57BL/6 mouse plasma at 5 mg/kg, iv. The format is ADME, organism-based.
A short description of series [30]: Volume of distribution in C57BL/6 mouse plasma at 5 mg/kg, iv. The series is classed as ADME, organism-based.

Several values for one entry are separate records, joined by “and”; a condition that tells them apart may be missing. Equal entries are not always repeated.

Sequence of Receptor-interacting serine/threonine-protein kinase 2 (Homo sapiens) (O43353 whole entry): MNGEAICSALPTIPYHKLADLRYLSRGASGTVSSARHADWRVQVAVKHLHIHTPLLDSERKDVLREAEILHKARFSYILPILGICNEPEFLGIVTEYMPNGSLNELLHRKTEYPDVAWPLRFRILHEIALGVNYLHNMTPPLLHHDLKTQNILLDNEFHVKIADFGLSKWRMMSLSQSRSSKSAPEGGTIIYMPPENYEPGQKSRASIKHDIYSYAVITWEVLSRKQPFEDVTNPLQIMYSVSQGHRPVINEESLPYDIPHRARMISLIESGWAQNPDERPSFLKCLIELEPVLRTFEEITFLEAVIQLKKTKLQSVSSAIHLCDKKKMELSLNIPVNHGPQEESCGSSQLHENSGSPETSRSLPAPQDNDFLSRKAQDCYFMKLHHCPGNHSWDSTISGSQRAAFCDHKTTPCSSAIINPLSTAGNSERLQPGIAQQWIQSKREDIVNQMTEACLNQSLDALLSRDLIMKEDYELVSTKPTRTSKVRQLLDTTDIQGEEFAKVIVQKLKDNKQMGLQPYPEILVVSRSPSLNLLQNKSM
T2 sequence (Q9Y572 whole entry): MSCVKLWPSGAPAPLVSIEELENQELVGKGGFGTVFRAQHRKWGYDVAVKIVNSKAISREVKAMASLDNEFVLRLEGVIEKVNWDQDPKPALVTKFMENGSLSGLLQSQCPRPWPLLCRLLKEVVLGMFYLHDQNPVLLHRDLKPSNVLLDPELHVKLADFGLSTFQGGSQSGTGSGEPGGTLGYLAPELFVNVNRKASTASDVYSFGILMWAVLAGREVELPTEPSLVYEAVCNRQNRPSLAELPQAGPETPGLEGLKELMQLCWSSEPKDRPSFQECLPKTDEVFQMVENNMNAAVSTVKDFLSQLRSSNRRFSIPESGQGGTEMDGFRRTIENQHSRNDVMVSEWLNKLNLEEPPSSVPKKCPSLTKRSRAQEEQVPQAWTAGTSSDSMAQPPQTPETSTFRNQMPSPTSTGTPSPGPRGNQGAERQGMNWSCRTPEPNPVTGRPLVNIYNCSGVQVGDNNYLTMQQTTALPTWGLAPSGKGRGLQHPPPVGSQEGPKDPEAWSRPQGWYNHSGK
Sequence of CYP2C9 (P11712 whole entry): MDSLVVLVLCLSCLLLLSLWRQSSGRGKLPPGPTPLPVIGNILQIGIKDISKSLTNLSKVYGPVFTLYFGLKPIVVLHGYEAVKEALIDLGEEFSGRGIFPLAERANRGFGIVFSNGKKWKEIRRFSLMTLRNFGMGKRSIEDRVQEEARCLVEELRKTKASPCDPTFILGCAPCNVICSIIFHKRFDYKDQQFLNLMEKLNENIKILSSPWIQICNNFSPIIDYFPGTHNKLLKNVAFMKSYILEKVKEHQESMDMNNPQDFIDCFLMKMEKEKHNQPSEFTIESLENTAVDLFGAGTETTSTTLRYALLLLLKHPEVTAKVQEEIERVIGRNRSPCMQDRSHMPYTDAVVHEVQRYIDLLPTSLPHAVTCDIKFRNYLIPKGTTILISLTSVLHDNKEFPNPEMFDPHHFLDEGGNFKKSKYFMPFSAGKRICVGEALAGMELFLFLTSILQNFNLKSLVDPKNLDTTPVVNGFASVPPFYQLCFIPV
Sequence of CYP3A4 (P08684 whole entry): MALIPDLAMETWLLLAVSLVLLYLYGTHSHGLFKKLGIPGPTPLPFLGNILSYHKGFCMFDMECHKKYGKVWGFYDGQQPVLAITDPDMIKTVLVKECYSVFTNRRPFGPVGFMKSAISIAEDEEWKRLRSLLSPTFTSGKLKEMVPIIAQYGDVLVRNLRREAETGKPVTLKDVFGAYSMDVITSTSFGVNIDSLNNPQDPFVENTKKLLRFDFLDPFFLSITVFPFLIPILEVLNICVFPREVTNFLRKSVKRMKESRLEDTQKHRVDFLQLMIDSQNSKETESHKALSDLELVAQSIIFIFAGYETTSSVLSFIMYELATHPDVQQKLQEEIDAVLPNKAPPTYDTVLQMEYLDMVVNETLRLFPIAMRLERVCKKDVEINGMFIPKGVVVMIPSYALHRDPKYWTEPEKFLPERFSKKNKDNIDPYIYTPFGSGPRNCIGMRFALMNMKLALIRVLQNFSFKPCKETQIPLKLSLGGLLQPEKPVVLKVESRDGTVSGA
Sequence of CYP2C19 (P33261 whole entry): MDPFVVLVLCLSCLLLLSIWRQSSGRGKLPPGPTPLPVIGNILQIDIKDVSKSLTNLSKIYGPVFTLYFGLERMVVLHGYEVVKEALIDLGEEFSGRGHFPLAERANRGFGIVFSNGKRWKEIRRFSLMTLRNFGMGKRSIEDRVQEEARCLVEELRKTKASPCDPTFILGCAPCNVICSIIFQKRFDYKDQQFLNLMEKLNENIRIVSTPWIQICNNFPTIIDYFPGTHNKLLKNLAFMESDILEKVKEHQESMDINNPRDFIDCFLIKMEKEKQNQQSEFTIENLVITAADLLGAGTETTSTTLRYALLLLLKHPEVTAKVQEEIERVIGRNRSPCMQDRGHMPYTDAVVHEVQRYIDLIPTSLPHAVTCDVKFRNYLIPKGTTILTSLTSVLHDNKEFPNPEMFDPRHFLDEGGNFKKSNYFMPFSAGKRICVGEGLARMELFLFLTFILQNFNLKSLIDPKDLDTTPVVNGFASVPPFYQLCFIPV
Sequence of Voltage-gated inwardly rectifying potassium channel KCNH2 (Q12809 whole entry): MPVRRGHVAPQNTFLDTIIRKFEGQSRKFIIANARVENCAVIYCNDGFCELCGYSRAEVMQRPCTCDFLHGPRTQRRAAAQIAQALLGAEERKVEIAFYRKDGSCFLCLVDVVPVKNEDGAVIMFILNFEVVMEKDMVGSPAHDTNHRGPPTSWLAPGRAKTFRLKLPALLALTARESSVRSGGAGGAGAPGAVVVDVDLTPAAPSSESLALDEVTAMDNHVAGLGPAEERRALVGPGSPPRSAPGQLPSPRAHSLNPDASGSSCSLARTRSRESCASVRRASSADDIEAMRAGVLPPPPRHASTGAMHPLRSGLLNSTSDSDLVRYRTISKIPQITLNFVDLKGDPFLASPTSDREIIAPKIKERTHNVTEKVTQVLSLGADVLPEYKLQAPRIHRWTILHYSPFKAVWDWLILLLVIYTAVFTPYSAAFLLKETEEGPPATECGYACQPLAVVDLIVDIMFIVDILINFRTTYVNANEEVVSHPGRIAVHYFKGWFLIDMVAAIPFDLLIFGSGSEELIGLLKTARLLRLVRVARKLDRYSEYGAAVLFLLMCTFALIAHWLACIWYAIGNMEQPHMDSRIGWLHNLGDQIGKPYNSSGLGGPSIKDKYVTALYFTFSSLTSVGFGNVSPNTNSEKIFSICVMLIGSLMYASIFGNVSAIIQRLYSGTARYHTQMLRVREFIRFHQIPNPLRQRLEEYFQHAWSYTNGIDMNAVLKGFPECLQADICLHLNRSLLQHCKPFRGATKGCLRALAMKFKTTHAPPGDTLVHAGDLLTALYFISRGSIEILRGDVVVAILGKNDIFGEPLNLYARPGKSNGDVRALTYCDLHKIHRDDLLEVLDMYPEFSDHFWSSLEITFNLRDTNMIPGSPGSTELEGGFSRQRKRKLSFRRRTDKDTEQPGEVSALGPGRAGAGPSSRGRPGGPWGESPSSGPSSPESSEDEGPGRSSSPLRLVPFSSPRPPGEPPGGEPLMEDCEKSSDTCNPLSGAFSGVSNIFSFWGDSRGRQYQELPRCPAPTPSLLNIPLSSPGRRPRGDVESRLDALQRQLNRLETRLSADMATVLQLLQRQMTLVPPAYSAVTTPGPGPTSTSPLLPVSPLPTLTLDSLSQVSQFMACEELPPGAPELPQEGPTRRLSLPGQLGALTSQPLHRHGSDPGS
Sequence of CYP2D6 (P10635 whole entry): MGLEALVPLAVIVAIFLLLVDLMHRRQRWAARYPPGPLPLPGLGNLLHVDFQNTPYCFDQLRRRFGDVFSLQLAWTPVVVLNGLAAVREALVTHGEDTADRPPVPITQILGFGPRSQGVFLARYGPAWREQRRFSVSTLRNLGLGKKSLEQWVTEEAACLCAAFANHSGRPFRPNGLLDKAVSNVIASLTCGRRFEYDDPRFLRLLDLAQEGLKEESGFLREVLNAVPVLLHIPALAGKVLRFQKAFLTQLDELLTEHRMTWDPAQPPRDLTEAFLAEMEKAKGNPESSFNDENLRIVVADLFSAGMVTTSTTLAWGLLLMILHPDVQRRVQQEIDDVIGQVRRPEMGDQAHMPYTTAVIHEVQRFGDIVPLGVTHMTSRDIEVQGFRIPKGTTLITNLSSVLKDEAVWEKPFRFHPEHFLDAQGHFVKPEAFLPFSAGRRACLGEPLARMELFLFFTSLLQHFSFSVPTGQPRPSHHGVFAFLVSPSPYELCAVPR

Usually inhibition stands for the relative decrease from the control value, in per cent. Low values mean a weak effect, high ones a strong effect. The half-life is how long it takes for the measured level to halve. A word on the Vd: it is a proportionality between amount in the body and measured concentration, not a real space. Read a high Vd as extensive tissue distribution. As a reminder, the clearance is the rate of elimination divided by the concentration. A lower clearance goes with a low capacity for elimination. One may read the IC50 as the concentration that gives 50% inhibition. Usually AUC stands for concentration integrated over time. In the case of `Cl.O=S1(=O)C=C(C2CC2)c2cc3nccc(Nc4ccc5scnc5c4)c3cc21`, the figures for the CLint scaled in series [1] and in series [10] were 67 mL/min/kg and 212 mL/min/kg, respectively. Moreover, the inhibition at 10 µM in series [2], in series [5], in series [8], in series [11] and in [14] was less than 10% in each case. In addition, the half-life in [3] is 26 min; in [12], 90 min; in series [13], 36 min. The molecule also had a Vd in series [4] of 4.4 L/kg. This molecule also came in with a clearance in [6] of 33 mL/min/kg. The molecule also registered an IC50 in [7] of more than 10 µM. For the same molecule, the AUC in series [9] stood at 8200 ng·h/mL.

As to `COc1nccnc1NS(=O)(=O)c1ccc(NC(=O)/C=C/c2ccc([N+](=O)[O-])s2)cc1`, the IC50 in [15] was < 1000 nM and 124 nM; in [16] it was less than 1000 nM.

The EC50 is the concentration that produces a half-maximal response. For `Cc1ccc(O)cc1Nc1ccnc2cc(-c3ccccn3)ccc12`, the EC50 in series [17] is 73.6 nM.

In general, Kd refers to the concentration at which binding is half-saturated. Read a low Kd as higher affinity. Turning to `N#Cc1c(Oc2ccc(F)c(NC(=O)Cc3cccc(C(F)(F)F)c3)c2)ccc2nc(NC(=O)C3CC3)sc12`, the affinity in [18], expressed as Kd, was 105 nM.

What is called bioavailability is dose-corrected exposure relative to a reference, in per cent. Higher therefore signals good availability. The CL/F is the apparent clearance, not corrected for the fraction that reaches the circulation. In [19], `CN1C(=O)[C@@H](NC(=O)c2nc(Cc3ccccc3)n[nH]2)COc2ccc(C#CC3CC3)cc21` yielded a bioavailability of 99%. This molecule registered a Vdss in series [20] of 902 mL/kg. In series [21], this molecule came in with an AUClast of 15000 ng·h/mL. In series [22], the CL/F amounted to 3.54 mL/min/kg.

`Cc1cc(-c2cnc(N)c3c(-c4ccc5scnc5c4)csc23)n(C)n1` returned an inhibition in series [23] of 84%.

Consider `CN(c1ccc(NC(=O)Nc2ccc(OC(F)(F)F)cc2)cc1)c1ccnc(Nc2cccc(S(N)(=O)=O)c2)n1` [GW806742X], for which the EC50 in [24] stood at 1850 nM. Further, the concentration for half-maximal inhibition (IC50) in series [25] was less than 50 nM.

Regarding `Cc1ccc(Oc2ccnc3cc(-c4cnn(C5CCNCC5)c4)ccc23)cc1`, in [26], the EC50 was 20.8 nM.

As to `CC(C)(C)C(=O)N1N=CC[C@H]1c1ccccc1`, the IC50 in series [27] was 3 nM.

In series [28], `COc1cc2c(cn1)N(C)C(=O)[C@@H](NC(=O)c1nc3n(n1)[C@H](c1ccccc1)CC3)CC2` returned a clearance of 49.2 mL/min/kg. The half-life in series [29] was 31.8 min. Further, the Vd in [30] was 1.84 L/kg.

For `CC(C)S(=O)(=O)c1ccc2nccc(Nc3ccc4scnc4c3)c2c1`, the inhibition in series [23] amounted to 76%.

(Values after ChEMBL document CHEMBL5338727, “From (Tool)Bench to Bedside: The Potential of Necroptosis Inhibitors” (J Med Chem, 2023).)
